Marks after values point to notes of the source that are not given here.

Holding throughout (format): in vivo, ICR mice
Data set [1] has as its system ovariectomized female mice. As to the kind of experiment: Femoral length and ratio of femoral ash weight to femoral length in ovariectomized female mice. The note with it: oral, 4 weeks, n = 11.
The test system of data set [2] is ovariectomized female mice. As to the kind of experiment: Tail bleeding time (thrombosis side effect) in ovariectomized female mice. The note with it: for Bleeding time (tail, mean ± SD): ovariectomized mice, oral, 30 min after last administration, n = 11.
Data set [3] concerns ovariectomized female mice. As to the kind of experiment: Femoral ash weight in ovariectomized female mice. The note with it: oral, 4 weeks, n = 11.
In data set [4] the test system is ovariectomized female mice. Put plainly: Femoral mineral content (BMC, ash weight/dry weight) in ovariectomized female mice. The note with it: ratio femoral ash weight/dry weight, oral, 4 weeks, n = 11.
Data set [5] relates to ovariectomized female mice. Put plainly: Trabecular bone density in ovariectomized female mice (CT of left femur). The note with it: oral, 4 weeks, n = 11.
Data set [6] relates to ovariectomized female mice. As to the kind of experiment: Femoral calcium content in ovariectomized female mice (OCPC method). The note with it: oral, 4 weeks, n = 11.
The subject of data set [7] is ovariectomized female mice. As to the kind of experiment: Femoral dry weight in ovariectomized female mice. The note with it: oral, 4 weeks, n = 11.
In data set [8] the test system is ovariectomized female mice. Put plainly: Pathological sections of oviduct walls, endometria and uterine glands of ovariectomized female mice. On the procedure:
Pathological sections of oviduct walls, endometria, and uterine glands of ovariectomized female mice were prepared to evaluate the influence of the complex on the oviduct walls, endometria, and uterine glands of the ovariectomized mice.

Data set [9] concerns ovariectomized female mice. As to the kind of experiment: Uterine weight (endometrial hyperplasia side effect) in ovariectomized female mice. The note with it: for Uterine weight (mean ± SD): ovariectomized mice, oral, n = 11.
Where [10] appears, read: at both doses of 2.3 μmol/kg/day and 0.23 μmol/kg/day.
Setting [11] is: ovariectomized mouse treated at 2.3 μmol/kg/day.
The mark [12] stands for this setting: summary of pathological sections FIG. 3A to FIG. 8E.

As for `C[C@]12CC[C@@H]3c4ccc(O)cc4CC[C@H]3[C@@H]1CC[C@@H]2O` [17β-estradiol], the “Ash weight/length (mean ± SD)” value in data set [1] (dose 0.23 μmol/kg/day) is recorded as 1.72 ± 0.22 mg/mm; in data set [1] (dose 2.3 μmol/kg/day), 2.02 ± 0.20^a mg/mm. Also, the “Effect on tail bleeding time (in words)” value in [2] (setting [10]) is recorded as “significantly shortened the tail bleeding time”. Besides, the entries for the “Bleeding time (tail, mean ± SD)” value in data set [2] (dose 0.23 μmol/kg/day) and in [2] (dose 2.3 μmol/kg/day) were 640.6 ± 189.6^a s and 659.1 ± 203.8^a s, respectively. Besides, the “Femoral ash weight (mean ± SD)” value in data set [3] (dose 0.23 μmol/kg/day) is given as 29.08 ± 5.42^b mg; in data set [3] (dose 2.3 μmol/kg/day), 33.37 ± 3.21^a mg. The “BMC (femoral mineral content, mean ± SD)” value is given as 0.560 ± 0.041 mg/mg in [4] (dose 0.23 μmol/kg/day) and 0.620 ± 0.020^a mg/mg in [4] (dose 2.3 μmol/kg/day). Besides, the “Trabecular bone density (mean ± SD)” value in data set [5] (dose 0.23 μmol/kg/day) is reported as 595.35 ± 30.47^d mg/cm^3; in data set [5] (dose 2.3 μmol/kg/day) it was 748.57 ± 33.37^a mg/cm^3. The “Femoral calcium content (mean ± SD)” value in data set [6] (dose 0.23 μmol/kg/day) is given as 23.34 ± 0.70%; in data set [6] (dose 2.3 μmol/kg/day), 24.57 ± 1.85^a %. Besides, the figures for the “Femoral dry weight (mean ± SD)” value in data set [7] (dose 0.23 μmol/kg/day) and in [7] (dose 2.3 μmol/kg/day) were 49.08 ± 6.02^b mg and 54.42 ± 2.96^a mg, respectively. Moreover, the “Thickness of endometrium (pathological section)” value in data set [8] (setting [11]) is on record as 23.08 μm. Besides, the “Thickness of oviduct wall (pathological section)” value in data set [8] (setting [11]) worked out at 152.11 μm. Besides, the “Uterine gland pathology (in words)” value in data set [8] (setting [11]) was “the density of the tissue around the uterine gland is significantly reduced”. For the same compound, the “Lesions of uterine glands (in words)” value in data set [8] (setting [12]) is recorded as “could cause lesions of uterine glands”. In addition, the “Thickening of endometria and oviduct walls (in words)” value in [8] (setting [12]) was “could induce the thickening of endometria and oviduct walls”. Also, the “Effect on uterine weight (in words)” value in [9] (setting [10]) is on record as “significantly increased the uterine weight”. In addition, the “Uterine weight (mean ± SD)” value is listed as 0.200 ± 0.041^a g in data set [9] (dose 0.23 μmol/kg) and 0.207 ± 0.045^a g in data set [9] (dose 2.3 μmol/kg).

The values are drawn from patent US20230233577A1, “17Beta-ESTRADIOL/VITAMIN C MOLECULAR COMPLEX, PREPARATION METHOD, AND USE THEREOF” (ZHEJIANG MEDICINE CO., LTD.XINCHANG PHARMACEUTICAL FACTORY, priority 2020, published 2023).
